Patent US7700782B2, “Compounds 569” (AstraZeneca AB, priority 2007, dated 2010)
Where a name gives a salt, the structure may show the parent alone.

Molecular target: T1, Adrenergic β2 (Homo sapiens, UniProt P07550)
T1 construct: Adherent H292 cells were removed from tissue culture flasks; endogenous in cells; host or cells: H292 cells
Assay: Adrenergic β2 mediated cAMP production in H292 cells (AlphaScreen cAMP detection)
Type: cell-based
Details: Intrinsic Activity, fraction relative to the maximum activity determined for formoterol
Procedure: Adrenergic β2 Mediated cAMP Production
H292 cells were grown in 225 cm2 flasks incubator at 37° C., 5% CO2 in RPMI medium containing, 10% (v/v) FBS (foetal bovine serum) and 2 mM L-glutamine.
Adherent H292 cells were removed from tissue culture flasks by treatment with Accutase™ cell detachment solution for 15 minutes. Flasks were incubated for 15 minutes in a humidified incubator at 37° C., 5% CO2. Detached cells were re-suspended in RPMI media (containing 10% (v/v) FBS and 2 mM L-glutamine) at 0.05×10^6 cells per mL. 5000 cells in 100 μL were added to each well of a tissue-culture-treated 96-well plate and the cells incubated overnight in a humidified incubator at 37° C., 5% CO2. The culture media was removed and cells were washed twice with 100 μL assay buffer and replaced with 50 μL assay buffer (HBSS solution containing 10 mM HEPES pH 7.4 and 5 mM glucose). Cells were rested at room temperature for 20 minutes after which time 25 μL of rolipram (1.2 mM made up in assay buffer containing 2.4% (v/v) dimethylsulphoxide) was added. Cells were incubated with rolipram for 10 minutes after which time test compounds were added and the cells were incubated for 60 minutes at room temperature. The final rolipram concentration in the assay was 300 μM and final vehicle concentration was 1.6% (v/v) dimethylsulphoxide. The reaction was stopped by removing supernatants, washing once with 100 μL assay buffer and replacing with 50 μL lysis buffer. The cell monolayer was frozen at −80° C. for 30 minutes (or overnight).
The concentration of cAMP (cyclic adenosine monophosphate) in the cell lysate was determined using AlphaScreen™ methodology. The frozen cell plate was thawed for 20 minutes on a plate shaker then 10 μL of the cell lysate was transferred to a 96-well white plate. 40 μL of mixed AlphaScreen™ detection beads pre-incubated with biotinylated cAMP, was added to each well and the plate incubated at room temperature for 10 hours in the dark. The AlphaScreen™ signal was measured using an EnVision spectrophotometer (Perkin-Elmer Inc.) with the recommended manufacturer's settings. cAMP concentrations were determined by reference to a calibration curve determined in the same experiment using standard cAMP concentrations. Concentration response curves for agonists were constructed and data was fitted to a four parameter logistic equation to determine both the pEC50 and Intrinsic Activity. Intrinsic Activity was expressed as a fraction relative to the maximum activity determined for formoterol in each experiment.

T1 sequence (P07550 whole entry): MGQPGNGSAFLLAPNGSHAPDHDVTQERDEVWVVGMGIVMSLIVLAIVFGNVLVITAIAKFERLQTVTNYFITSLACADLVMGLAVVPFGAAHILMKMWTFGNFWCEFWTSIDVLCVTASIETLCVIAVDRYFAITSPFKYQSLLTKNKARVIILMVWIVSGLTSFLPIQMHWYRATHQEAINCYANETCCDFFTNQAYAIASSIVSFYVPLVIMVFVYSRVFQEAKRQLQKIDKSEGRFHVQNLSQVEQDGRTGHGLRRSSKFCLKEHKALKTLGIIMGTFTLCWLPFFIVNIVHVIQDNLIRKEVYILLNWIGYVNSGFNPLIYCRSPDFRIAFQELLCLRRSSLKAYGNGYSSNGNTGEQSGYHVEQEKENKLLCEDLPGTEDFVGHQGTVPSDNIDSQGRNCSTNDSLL

β2 Int Act | SMILES
0.67 | COc1cccc(CCNCCC(=O)N(CCNCCc2ccc(O)c3[nH]c(=O)sc23)CC(C)(C)C)c1 [Example 43, N^1-(2,2-Dimethylpropyl)-N^1-(2-{[2-(4-hydroxy-2-oxo-2,3-dihydro-1,3-benzothiazol-7-yl)ethyl]amino}ethyl)-N^3-[2-(3-methoxyphenyl)ethyl]-β-alaninamide bis-trifluoroacetic acid salt]
0.55 | CC(C)(CN(CCNCCc1ccc(O)c2[nH]c(=O)sc12)C(=O)CCNCCc1ccccc1)c1ccccc1 [Example 45, N^1-(2-{[2-(4-Hydroxy-2-oxo-2,3-dihydro-1,3-benzothiazol-7-yl)ethyl]amino}ethyl)-N^1-(2-methyl-2-phenylpropyl)-N^3-(2-phenylethyl)-β-alaninamide bis-trifluoroacetic acid salt]
0.55 | O=C(CCNCCc1ccc(Cl)cc1)N(CCNCCc1ccc(O)c2[nH]c(=O)sc12)C1CCC(F)(F)CC1 [Example 48, N^3-[2-(4-Chlorophenyl)ethyl]-N^1-(4,4-difluorocyclohexyl)-N^1-(2-{[2-(4-hydroxy-2-oxo-2,3-dihydro-1,3-benzothiazol-7-yl)ethyl]amino}ethyl)-β-alaninamide bis-trifluoroacetic acid salt]
0.59 | O=C(CCNCCc1ccc(Cl)cc1)N(CCNCCc1ccc(O)c2[nH]c(=O)sc12)C1CCCCCC1 [Example 51, N^3-[2-(4-Chlorophenyl)ethyl]-N^1-cycloheptyl-N^1-(2-{[2-(4-hydroxy-2-oxo-2,3-dihydro-1,3-benzothiazol-7-yl)ethyl]amino}ethyl)-β-alaninamide bis-trifluoroacetic acid salt]

Further lines, the molecule ahead of its results:

SMILES | β2 Int Act
CC(C)(C)CN(CCNCCc1ccc(O)c2[nH]c(=O)sc12)C(=O)CCNCCc1cccc(F)c1 [Example 44, N^1-(2,2-Dimethylpropyl)-N^3-[2-(3-fluorophenyl)ethyl]-N^1-(2-{[2-(4-hydroxy-2-oxo-2,3-dihydro-1,3-benzothiazol-7-yl)ethyl]amino}ethyl)-β-alaninamide bis-trifluoroacetic acid salt] | 0.73
O=C(CCNCCc1ccccc1Cl)N(CCNCCc1ccc(O)c2[nH]c(=O)sc12)C1CCC(F)(F)CC1 [Example 46, N^3-[2-(2-Chlorophenyl)ethyl]-N^1-(4,4-difluorocyclohexyl)-N^1-(2-{[2-(4-hydroxy-2-oxo-2,3-dihydro-1,3-benzothiazol-7-yl)ethyl]amino}ethyl)-β-alaninamide bis-trifluoroacetic acid salt] | 0.78
O=C(CCNCCc1cccc(Cl)c1)N(CCNCCc1ccc(O)c2[nH]c(=O)sc12)C1CCC(F)(F)CC1 [Example 47, N^3-[2-(3-Chlorophenyl)ethyl]-N^1-(4,4-difluorocyclohexyl)-N^1-(2-{[2-(4-hydroxy-2-oxo-2,3-dihydro-1,3-benzothiazol-7-yl)ethyl]amino}ethyl)-β-alaninamide bis-trifluoroacetic acid salt] | 0.73
O=C(CCNCCc1ccc(Cl)c(Cl)c1)N(CCNCCc1ccc(O)c2[nH]c(=O)sc12)C1CCC(F)(F)CC1 [Example 49, N^3-[2-(3,4-Dichlorophenyl)ethyl]-N^1-(4,4-difluorocyclohexyl)-N^1-(2-{[2-(4-hydroxy-2-oxo-2,3-dihydro-1,3-benzothiazol-7-yl)ethyl]amino}ethyl)-β-alaninamide bis-trifluoroacetic acid salt] | 0.59
O=C(CCNCCc1cccc(Cl)c1)N(CCNCCc1ccc(O)c2[nH]c(=O)sc12)C1CCCCCC1 [Example 50, N^3-[2-(3-Chlorophenyl)ethyl]-N^1-cycloheptyl-N^1-(2-{[2-(4-hydroxy-2-oxo-2,3-dihydro-1,3-benzothiazol-7-yl)ethyl]amino}ethyl)-β-alaninamide bis-trifluoroacetic acid salt] | 0.91
